Laboratory results as given in paper PMC12040169 (PLOS Biology, 2025).

Assay: in vitro
Settings: human, hela cells, % viability

SMILES | viability at 28.5 h, 10 µM [%]
CC(=O)Nc1ccc2nc(NC(=O)c3ccc4c(c3)OCCO4)sc2c1 [CBK287571] | 101
CC(C)CN1CC(C(=O)N(C)CC2OCCc3ccccc32)CC1=O (stereo not shown) [CBK282093] | 102
CC(C)(C)OC(=O)N1CCCC(C(=O)NC2CCCc3ccccc32)C1 (stereo not shown) [CBK305617] | 93.2
Cc1ccccc1-n1c(=O)cc(N2CCN(c3ccc(F)cc3)CC2)[nH]c1=O [CBK287508] | 95.1
Cc1cc(C)n(CC(=O)N2CCOC(c3ccccc3Cl)C2)n1 (stereo not shown) [CBK304927] | 91.9
CCN(Cc1cnc(C)s1)[C@H]1CCO[C@@H](c2ccccc2-c2ccc(OC)cc2)C1 [CBK285853] | 95.5
O=C(COc1ccc(-c2ccccc2)cc1)N1CCN(S(=O)(=O)c2ccc([N+](=O)[O-])cc2)CC1 [CBK264297] | 106
O=C(CCN1C(=O)/C(=C\c2cccs2)SC1=S)Nc1cc(Cl)ccc1O [CBK263643] | 98.2
CC(=O)Nc1ccc(SC(C)c2nsc(NS(=O)(=O)c3ccc(-c4ccccc4)cc3)n2)cc1 (stereo not shown) [CBK047508] | 91.5
O=C(NCc1ccc2c(c1)OCO2)c1ccc2c(c1)C(=O)N(Cc1cccnc1)C2=O [CBK267824] | 89.3
CCCN1CC(NC(=O)c2cc(COc3cccc(F)c3)[nH]n2)CC1=O (stereo not shown) [CBK306912] | 82.2
Cc1ccc(CC(=O)N2CCC(Cc3ccccc3-c3ccccc3C)(C(N)=O)CC2)cc1 [CBK285727] | 98.2
COc1ccc(NC(=O)c2ccc(-c3ccc(Nc4ccc5c(c4)OCCO5)nc3)cc2)cc1 [CBK036815] | 88.7
Nc1ncc(-c2ccco2)nc1-c1ccc(C=O)cc1 [CBK064095] | 102
O=C(NCCc1cccs1)N1CCC2(CC1)OCCc1c2[nH]c2ccccc12 [CBK047129] | 85.4
CCC(C)(CC(=O)O)CC(=O)N1CCC2(CC1)OCCc1c2[nH]c2ccccc12 (stereo not shown) [CBK047051] | 102
COc1cccc(N2N=C3NNC(N)=C3N2)c1 [CBK093665] | 83.7
O=C(O)c1cccc(NS(=O)(=O)c2cccc(Cl)c2Cl)c1 [CBK155686] | 94.7
Cc1cc(C)n(CC(=O)NCCCn2ccnc2C(C)C)c(=O)n1 [CBK307185] | 92.4
O=C(Nc1ccc2c(O)cc(S(=O)(=O)O)cc2c1)Nc1ccc2c(O)cc(S(=O)(=O)O)cc2c1 [CBK278157N] | 91.1
Nc1nc2cccnc2cc1-c1ccsc1 [CBK081214] | 85.8
O=S(=O)(c1ccc(-c2ccc(S(=O)(=O)N3CCCCC3)cc2)cc1)N1CCCCC1 [CBK261257] | 92.2

SMILES | viability at 28.5 h, 10 µM [%]
Cc1ccn(CCC(=O)NC(C)c2cccnc2)n1 (stereo not shown) [CBK282197] | 97.6
Cc1ccc(-c2ccc(CCC(=O)O)n2CC2CCCO2)cc1 (stereo not shown) [CBK268636] | 101
O=[N+]([O-])c1ccc2nc(Sc3nc4ccccc4[nH]3)sc2c1 [CBK263356] | 89.8
CC(C)C(=O)N[C@@H](C)Cn1c(C(F)(F)F)cc2cccnc21 [CBK283231] | 95.6
Cc1cc(C)c2c(n1)sc1c(N3CCC(C(=O)O)CC3)ncnc12 [CBK300512] | 83.1
CCCN1C(=O)[C@@H]2[C@@H](CCN2C(=O)C(=O)O)N(Cc2cccs2)C1=O [CBK289277] | 93.1
N#Cc1ccc(CN2CCN(S(=O)(=O)c3ccc(-c4ccccc4)cc3)CC2)cc1 [CBK062752] | 105
S=C(NCCC(c1ccccc1)c1ccccc1)NC1CCCCC1 [CBK264007] | 96.3
Nc1nc(OCc2ccc3c(c2)OCO3)cnc1/C=C/c1ccccc1 [CBK145123] | 92.7
Cc1c(-c2ccc(OCC(N)=O)cc2)nc2ccc(Br)cc2c1C(=O)O [CBK287050] | 93.1
COc1ccc(O)c(-c2c(-c3ccc(C)cc3)n[nH]c2C)c1 [CBK287961] | 93.1
CCOc1ncccc1C(=O)N(Cc1nnc(-c2ccc(Cl)cc2)o1)C1CC1 [CBK296934] | 96.3
Fc1cc(F)c(OCCCCOc2nccnc2N2CCNCC2)cc1F [CBK028624T] | 105
COC(=O)c1cn([C@H]2CO[C@H]3[C@@H]2OC[C@H]3O)nn1 [CBK289491] | 87.5
COc1ccc(C2=NN(c3ccc([N+](=O)[O-])cc3)C(=O)/C2=C\c2cccc(OC)c2OC)cc1 [CBK264475] | 96
Cc1cc(Cl)ccc1NC(=O)COC(=O)c1ccccc1I [CBK265638] | 89.6
COCCNc1cc(-c2ccccc2N(C)C)ncn1 [CBK090790] | 109
O=c1c2c3c(sc2nc(SCc2nc4ccccc4[nH]2)n1Cc1ccco1)CCC3 [CBK268306] | 104
Cc1cc(NC(=O)CN2CCCC2CC(O)c2ccccc2)no1 (stereo not shown) [CBK305139] | 88.8
O=C(c1cccc(-c2cncc(-c3ccc(O)cc3)n2)c1)N1CCOCC1 [CBK123796] | 100
CCCc1ccc(C(=O)NCC(C)n2cncn2)o1 (stereo not shown) [CBK282883] | 92.5
